From patent US10975013B2, “Method for producing vanillin” (T. HASEGAWA CO., LTD., priority 2018, dated 2021)

Legend:
Format in all cases: physicochemical
[1] = Solubility of vanillin in dibutyl maleate-solvent mixed solvents (1:1) at 25° C.
[2] = Solubility of vanillin in various solvents at 25° C.
[3] = Solubility of vanillin in solvent-heptane mixed solvents (1:1) at 25° C.

Solubility (mass %) of vanillin in dibutyl maleate-solvent mixed solvent (1:1) at 25° C. ([1]; dibutyl maleate-Cyclohexane (1:1)): 2.1% mass %
Solubility (mass %) of vanillin in dibutyl maleate-solvent mixed solvent (1:1) at 25° C. ([1]; dibutyl maleate-Heptane (1:1)): 1.7% mass %
Solubility (mass %) of vanillin in dibutyl maleate-solvent mixed solvent (1:1) at 25° C. ([1]; dibutyl maleate-Hexane (1:1)): 1.7% mass %
Solubility (mass %) of vanillin in dibutyl maleate-solvent mixed solvent (1:1) at 25° C. ([1]; dibutyl maleate-Isooctane (1:1)): 1.8% mass %
Solubility (mass %) of vanillin in dibutyl maleate-solvent mixed solvent (1:1) at 25° C. ([1]; dibutyl maleate-Petroleum ether (1:1)): 1.6% mass %
Solubility (mass %) of vanillin in dibutyl maleate-solvent mixed solvent (1:1) at 25° C. ([1]; dibutyl maleate-Toluene (1:1)): 5.5% mass %
Solubility (mass %) of vanillin at 25° C. ([2]; solvent 1-Chlorotetradecane): 0.4% mass %
Solubility (mass %) of vanillin at 25° C. ([2]; solvent Benzyl benzoate): 6.6% mass %
Solubility (mass %) of vanillin at 25° C. ([2]; solvent Dibenzyl ether): 5.5% mass %
Solubility (mass %) of vanillin at 25° C. ([2]; solvent Dibutyl adipate): 10.9% mass %
Solubility (mass %) of vanillin at 25° C. ([2]; solvent Dibutyl fumarate): 9.2% mass %
Solubility (mass %) of vanillin at 25° C. ([2]; solvent Dibutyl maleate): 11.3% mass %
Solubility (mass %) of vanillin at 25° C. ([2]; solvent Dibutyl succinate): 15.4% mass %
Solubility (mass %) of vanillin at 25° C. ([2]; solvent Diethyl phthalate): 14.8% mass %
Solubility (mass %) of vanillin at 25° C. ([2]; solvent Diethyl sebacate): 13.6% mass %
Solubility (mass %) of vanillin at 25° C. ([2]; solvent Diisobutyl adipate): 7.7% mass %
Solubility (mass %) of vanillin at 25° C. ([2]; solvent Ethyl laurate): 3.1% mass %
Solubility (mass %) of vanillin at 25° C. ([2]; solvent Isopropyl myristate): 2.0% mass %
Solubility (mass %) of vanillin at 25° C. ([2]; solvent Tetraglyme): 31.3% mass %
Solubility (mass %) of vanillin at 25° C. ([2]; solvent Tripropionin): 18.1% mass %
Solubility (mass %) of vanillin at 25° C. ([2]; solvent n-Pentadecane): 0.05% mass %
Solubility (mass %) of vanillin at 25° C. ([2]; solvent γ-Undecalactone): 16.2% mass %
Solubility (mass %) of vanillin at 25° C. ([2]; solvent δ-Decalactone): 17.4% mass %
Solubility (mass %) of vanillin in solvent-heptane mixed solvent (1:1) at 25° C. ([3]; Benzyl benzoate-heptane (1:1)): 1.2% mass %
Solubility (mass %) of vanillin in solvent-heptane mixed solvent (1:1) at 25° C. ([3]; Dibenzyl ether-heptane (1:1)): 0.9% mass %
Solubility (mass %) of vanillin in solvent-heptane mixed solvent (1:1) at 25° C. ([3]; Dibutyl adipate-heptane (1:1)): 1.4% mass %
Solubility (mass %) of vanillin in solvent-heptane mixed solvent (1:1) at 25° C. ([3]; Dibutyl fumarate-heptane (1:1)): 1.0% mass %
Solubility (mass %) of vanillin in solvent-heptane mixed solvent (1:1) at 25° C. ([3]; Dibutyl succinate-heptane (1:1)): 1.7% mass %
Solubility (mass %) of vanillin in solvent-heptane mixed solvent (1:1) at 25° C. ([3]; Diethyl phthalate-heptane (1:1)): Oiling out
Solubility (mass %) of vanillin in solvent-heptane mixed solvent (1:1) at 25° C. ([3]; Diethyl sebacate-heptane (1:1)): 1.6% mass %
Solubility (mass %) of vanillin in solvent-heptane mixed solvent (1:1) at 25° C. ([3]; Diisobutyl adipate-heptane (1:1)): 1.4% mass %
Solubility (mass %) of vanillin in solvent-heptane mixed solvent (1:1) at 25° C. ([3]; Ethyl laurate-heptane (1:1)): 0.6% mass %
Solubility (mass %) of vanillin in solvent-heptane mixed solvent (1:1) at 25° C. ([3]; Isopropyl myristate-heptane (1:1)): 0.3% mass %
Solubility (mass %) of vanillin in solvent-heptane mixed solvent (1:1) at 25° C. ([3]; Tetraglyme-heptane (1:1)): Oiling out
Solubility (mass %) of vanillin in solvent-heptane mixed solvent (1:1) at 25° C. ([3]; Tripropionin-heptane (1:1)): Oiling out
Solubility (mass %) of vanillin in solvent-heptane mixed solvent (1:1) at 25° C. ([3]; dibutyl maleate-Heptane (1:1)): 1.7% mass %
Solubility (mass %) of vanillin in solvent-heptane mixed solvent (1:1) at 25° C. ([3]; γ-Undecalactone-heptane (1:1)): 3.6% mass %
Solubility (mass %) of vanillin in solvent-heptane mixed solvent (1:1) at 25° C. ([3]; δ-Decalactone-heptane (1:1)): Oiling out
SMILES: COc1cc(C=O)ccc1O [vanillin]
